Consider twelve molecules from patent US7795390B2, “Biological substance nesfatin and its related substances and uses thereof” (Teijin Pharma Limited, priority 2005, dated 2010).

The subject of one assay is ICR mice. Put plainly: Intraperitoneal administration of partial peptides of nesfatin-1 / nesfatin-1M30 / NUCB1-M30 to ICR mice, food intake. In kind it is in vivo, mouse. The note with it: 0-3 hours. The procedure:
Each peptide of nesfatin-1N23, nesfatin-1M30 and nesfatin-1C29 used was a synthetic peptide of which production was referred to Biologica Co., Ltd. and was purified by HPLC to a purity of 95% or higher. Each peptide was prepared in physiological saline so as to contain 50 nmol per 200 μl, which was used as the sample, and as the control sample physiological saline (Vehicle) alone was used. Using a tuberculin syringe equipped with a 25G needle, 200 μl each of the samples was administered once into the abdominal cavity of each mouse (5 animals per group), and the time of administration was immediately before the start (6 p.m.) of the dark period. Mice used were male ICR mice (Nippon SLC) and the housing condition was similar to those in Working Example 18.
Each mouse that received administration was placed in an individual cage, and during 0-3 hours after the administration the weight decreased of the pellet food was measured to determine the amount of food intake. For testing of significant difference, analysis of variance was used.
Each peptide was prepared in physiological saline so as to contain 10 pmol per 100 μl, which was used as the sample for administration, and as the control sample physiological saline (Vehicle) alone was used. The physiological saline as the control and the peptide samples prepared were intraperitoneally administered at 100 μl per mouse (6 animals per group). Mice used were male ICR mice (Nippon SLC) and the housing condition and the experimental condition were similar to those in Working Example 18.
Each of the prepared human nesfatin-1M30 and mouse NUCB1-M30 was prepared in physiological saline so as to contain 10 pmol per 100 μl, which was used as the sample for administration.
The physiological saline as the control and the peptide sample prepared were intraperitoneally administered at 100 μl per mouse (n=6 per group). Mice used were male ICR mice (Nippon SLC) and the housing condition and the experimental condition were similar to those in Working Example 18.

Another assay concerns Wistar rats. Put plainly: Administration of nesfatin-1, nesfatin-2, nesfatin-3, nesfatin-2/3 into the third ventricle, amount of food intake. The class given is in vivo, rat. To be noted: for amount of food intake: 25 pmol into the third ventricle before dark period, 0-1 hr and 1-3 hr, vs control. The procedure: Samples used for intracerebral administration were PBS alone (vehicle group), or nesfatin-1, nesfatin-2, nesfatin-3 or nesfatin-2/3 prepared in Working Example 10 each dissolved in PBS, and 25 pmol was administered per individual into the third ventricle immediately before the dark period. Rats used were Wistar rats (purchased from Nippon SLC) and were housed as in Working Example 6, and among 8-9 week-old male Wistar rats, those individuals weighing 200-250 g were selected and used (N=5). The technique of intraventricular administration and the measurement of the amount of food intake in rats were carried out in a method similar to those in Working Example 6. In the measurement of the amount of food intake, the reduced amount of food at 1 hour after administration (0-1 hr) and 2 hours after administration (1-3 hrs) was determined as food intake.
In the same condition above, 1, 5 or 25 pmol of nesfatin-1 as a sample was administered per rat individual into the third ventricle immediately before the dark period. In this experiment, the amount of food intake was determined at 1 hour after administration (0-1 hr).
The experimental condition was similar to that in Working Example 12, and 5 pmol of nesfatin-1 was administered into the third ventricle of the rat brain immediately before the start of the dark period, the amount decreased of the food (the amount of food intake) during 1 hour immediately after administration (0-1 hr), during 2 hours from 1 hour after the administration (1-3 hr), during 3 hours from 3 hours after the administration (3-6 hr), and during 6 hours from 6 hours after the administration (6-12 hr) was measured as the amount of food intake. As the control group, the amount of food intake by individuals that received physiological saline alone was measured.
The experimental condition was similar to that in Working Example 12, and for a group that received 5 pmol of nesfatin-1 alone into the third ventricle of the rat brain immediately before the start of the dark period and a group that received 5 pmol of nesfatin-1 and 8 μg of anti-nesfatin-1 antibody (nesfatin-1 IgG), the amount of food intake for 1 hour after administration was measured and compared to that for the control group (physiological saline alone was administered). Also, for a group that received only leptin (Rat leptin: R & D Systems, 598-LP-01M) (1 μg) which is known to have an activity of suppressing food intake by intraventricular administration and a group that received leptin and anti-nesfatin-1 antibody, its effect on food intake was also studied.

Where [1] appears, read: 10 pmol per 100 μl ip, partial peptides of nesfatin-1M30, vs saline.
The mark [2] stands for this setting: 10 pmol per 100 μl ip, Working Example 23, vs Vehicle.
Where [3] appears, read: 50 nmol per 200 μl ip, vs Vehicle.

For the molecule “N-LysGlnValIleGluValLeuGluThrAsp-C (KQVIEVLETD; listed as Mus musculus) [nesfatin-1M10M]”, in the assay with ICR mice (setting [1]), the “amount of food intake” value is “significant effect of suppressing food intake”.
Same read-out and setting: next, “N-ValLeuGluThrAspProHisPheArgGluLysLeuGlnLys-C (VLETDPHFREKLQK; listed as Mus musculus) [nesfatin-1M14]”: “significant effect of suppressing food intake”.
In the case of “human nesfatin-1M30: human nesfatin-1M30 (SEQ ID NO: 39), chemical synthesis (PDTGLYYDEYLKQVIDVLETDKHFREKLQK; listed as Homo sapiens)”, the “amount of food intake” value in the assay on ICR mice (setting [2]) was “significant effect of suppressing food intake”.
On to “mouse NUCB1-M30: site of mouse NUCB1 corresponding to nesfatin-1M30 (SEQ ID NO: 103) (PDTGLYYHRYLQEVINVLETDGHFREKLQA; listed as Mus musculus)”, for which the “amount of food intake” value with ICR mice (setting [2]) is “significant effect of suppressing food intake”.
As for “nesfatin-1C29: amino acid numbers 54 to 82 of mouse nesfatin-1 (SEQ ID NO: 43) (ADIEEIRSGRLSQELDLVSHKVRTRLDEL; listed as Mus musculus)”, in the assay with ICR mice (setting [3]), the “amount of food intake” value was “no significant decrease or enhancement in the amount of food intake”.
Regarding “nesfatin-1M16: 16-amino acid partial peptide of mouse nesfatin-1M30 (SEQ ID NO: 71) (PDTGLYYDEYLKQVIE; listed as Mus musculus)”, in the assay on ICR mice (setting [1]), the “amount of food intake” value is on record as “significant effect of suppressing food intake”.
Turning to “nesfatin-1M30: 30-amino acid partial peptide of mouse nesfatin-1 (SEQ ID NO: 41) (PDTGLYYDEYLKQVIEVLETDPHFREKLQK; listed as Mus musculus)”, the “amount of food intake” value is recorded as “significant effect of suppressing food intake” in the assay on ICR mice (setting [2]) and “significant decrease” in the assay on ICR mice (setting [3]).
As for “nesfatin-1N23: amino acid numbers 1 to 23 of mouse nesfatin-1 (SEQ ID NO: 42) (VPIDVDKTKVHNTEPVENARIEP; listed as Mus musculus)”, the “amount of food intake” value with ICR mice (setting [3]) is on record as “no significant decrease or enhancement in the amount of food intake”.

B1: leptin: Rat leptin: R & D Systems, 598-LP-01M; known to suppress food intake by intraventricular administration (protein)
chain: VPIHKVQDDTKTLIKTIVTRINDISHTQSVSARQRVTGLDFIPGLHPILSLSKMDQTLAVYQQILTSLPSQNVLQIAHDLENLRDLLHLLAFSKSCSLPQTRGLQKPESLDGVLEASLYSTEVVALSRLQGSLQDILQQLDLSPEC
On to B1, for which the “amount of food intake for 1 hour after administration” value in the assay on Wistar rats (given alone into the third ventricle (nesfatin-1 5 pmol; leptin 1 μg), vs saline control) is on record as “decreased”.

B2: nesfatin-2: 79-residue peptide, amino acid Nos. 109 to 187 of nesfatin (SEQ ID NO: 16) (peptide, listed as Rattus norvegicus)
chain: QEVGRLRMLIKAKLDALQDTGMNHHLLLKQFEHLNHQNPDTFESKDLDMLIKAATADLEQYDRTRHEEFKKYEMMKEHE
In the case of B2, the “amount of food intake” value in the assay on Wistar rats is reported as “did not exhibit any significant changes in the amount of food intake”.

B3: nesfatin-3: 231 residues, amino acid Nos. 190 to 420 of nesfatin (SEQ ID NO: 17), cell-free protein synthesis, Met added (protein, listed as Rattus norvegicus)
chain: EYLKTLSEEKRKEEEAKFAEMKRKHEDHPKVNHPGSKDQLKEVWEETDGLDPNDFDPKTFFKLHDVNNDGFLDEQELEALFTKELDKVYNPQNAEDDMIEMEEERLRMREHVMNEIDNNKDRLVTLEEFLRATEKKEFLEPDSWETLDQQQLFTEEELKEYESIIAIQESELKKKADELQKQKEELQRQHDHLEAQKQEYQQAVQQLEQKKFQQGIAPSGPAGELKFEPHT
modifications: N-terminal Met added
B3: the “amount of food intake” value in the assay on Wistar rats was “did not exhibit any significant changes in the amount of food intake”.

B4: nesfatin-2/3: portion of the sequence consisting of nesfatin-2 and nesfatin-3 (SEQ ID NO: 47), cell-free protein synthesis (protein, listed as Rattus norvegicus)
chain: QEVGRLRMLIKAKLDALQDTGMNHHLLLKQFEHLNHQNPDTFESKDLDMLIKAATADLEQYDRTRHEEFKKYEMMKEHERREYLKTLSEEKRKEEEAKFAEMKRKHEDHPKVNHPGSKDQLKEVWEETDGLDPNDFDPKTFFKLHDVNNDGFLDEQELEALFTKELDKVYNPQNAEDDMIEMEEERLRMREHVMNEIDNNKDRLVTLEEFLRATEKKEFLEPDSWETLDQQQLFTEEELKEYESIIAIQESELKKKADELQKQKEELQRQHDHLEAQKQEYQQAVQQLEQKKFQQGIAPSGPAGELKFEPHT
As to B4, in the assay on Wistar rats, the “amount of food intake” value was “did not exhibit any significant changes in the amount of food intake”.
